Tested on: epithelial cells
Type: cell-based, human

OC[C@H]1O[C@@](CO)(O[C@H]2O[C@H](CO)[C@@H](O)[C@H](O)[C@H]2O)[C@@H](O)[C@@H]1O [5% Sucrose, sucrose]
time after which sticky clumps were invaded by fungi and bacteria (0.5% solution): 48 h
cell replication / tissue formation observed (0.5% solution, isolated epithelial cells, ambient temperature): Rapid cell replication was observed in form of sticky clumps with no distinct differentiation into tissue formation
Potential for Tissue Growth (ambient temperature (24° C.)): sticky lump

From patent US20030096015A1, “Cytogenic/nucleogenic healing” (priority 1997, published 2003)
